The subject of experiment [1] is S. faecalis. As to the kind of experiment: RIND VII reduction solution assay, ΔOD 635 nm. The experiment is classed as cell-based, Streptococcus faecalis. As to conditions: S. faecalis 7 × 10^7 /ml, antibiotic 10^-4 molar. The protocol: (§1) Bacterial suspensions were prepared by growing the cells in BHT broth to stationary phase overnight at 37° C. P. auruginosa was grown with agitation. About 40 ml of each overnight culture was centrifuged, decanted and washed once with 0.05 molar potassium phosphate buffer or 0.05 molar N-2-hydroxy-ethylpiperazine-N'-2-ethanesulfonic acid (HEPES) buffer, pH 7.8, and resuspended in buffer.
(§2) TERGITOL 7 anionic surfactant was used to differentiate viable bacteria according to the prior art method. Various concentrations of TERGITOL 7 surfactant were mixed with a 10% glucose solution (50 μl), 3-(4,5-dimethyl-2-thiazolyl)-2,5-diphenyl-2N-tetrazolium bromide (MTT) (25 μl at 5 mg/ml methanol) or a RIND VII dispersion (1.5 ml) and phenazine methosulfate ETA (25 μl at 3 mg/ml methanol). The volume of each test solution was brought to 3 ml with potassium phosphate buffer. A cell suspension (100 μl at about 10^8 cells/ml) was then added. The solutions were incubated at 37° C. for 15 and 30 minutes in the presence of either E. coli, a gram(-) bacterium, or S. aureus, a gram(+) bacterium. The amount of dye formed was then determined visually, and graded as follows: "O" indicates no dye formation, +/- indicates faint dye formation, 1+ indicates light dye formation, 2+ indicates moderate dye formation, 3+ indicates strong dye formation, and 4+ indicates very strong dye formation. […]

Experiment [2] deals with S. aureus. Nature of the experiment: RIND VII reduction solution assay, ΔOD 635 nm. Type of experiment: cell-based, Staphylococcus aureus. As to conditions: S. aureus 7 × 10^7 /ml, antibiotic 10^-4 molar. The protocol: as §1, §2
Experiment [3] deals with S. faecalis. As to the kind of experiment: DCIP reduction solution assay, ΔOD 620 nm. The experiment is classed as cell-based, Streptococcus faecalis. The conditions noted are these: S. faecalis (+) 5×10^7, gramicidin S 0.00625 mg/ml, 37° C. The protocol:
(§3) These examples illustrate the differentiation of bacteria using a tetrazolium salt and phenolic dye as the reducible compounds and two cyclic polypeptide antibiotics according to the present invention. The tetrazolium salt was 3-(4,5-dimethyl-2-thiazolyl) -2,5-diphenyl-2H-tetrazolium bromide (MTT) which forms a colored formazan dye when reduced. The phenolic dye was 2,6-dichloroindophenol (DCIP) which forms a colorless species when reduced.
(§4) Solutions of the reducible compounds were prepared with the following: HEPES buffer (3 ml, 0.05 molar, pH 7.5), TRITON X-100 nonionic surfactant (1% concentration), glucose (50 μl of 10% in water), tryptose (50 μl of a 10% solution in water), MTT (25 μl of 5 mg/ml methanol) or DCIP (25 μl of 3 mg/ml methanol) and phenazine methosultate ETA (25 μl of 3 mg/ml methanol).
(§5) Test solutions were prepared from the following: reducible compound solution from above (200 μl), 50 μl of either gramicidin S solution (6 mg/ml methanol and 9 ml of buffer) or tyrocidin solution (100 mg/ml methanol and 8 ml of buffer) and 50 μl of cell suspension. […] The change in optical density (ΔOD) was determined after 30 minutes at 37° C. at 540 nm for the MTT assay and at 620 nm for the DCIP assay using a commercially available spectrophotometer.

Experiment [4] relates to E. cloacae. As to the kind of experiment: MTT reduction solution assay, ΔOD 540 nm. The experiment is classed as cell-based, Enterobacter cloacae. As to conditions: E. cloacae (-) 5×10^7, gramicidin S 0.00625 mg/ml, 37° C. The protocol: as §3, §4, §5
On the technique in general: Tetrazolium dyes change colour on reduction, which living cells bring about.

For experiment [5], the system named is P. aeruginosa. Nature of the experiment: RIND XXIX reduction solution assay, Δ fluorescence. Type of experiment: cell-based, Pseudomonas aeruginosa. The conditions noted are these: P. aeruginosa (gram -) about 5×10^7 cells/ml, gramicidin S 0.1 mg/ml, 37° C. The protocol:
as §1
(§6) Dispersions containing RIND compounds were prepared by dissolving the RIND compound in N,N-dimethylformamide (DMF) at 16 mg compound per ml of solvent. An aliquot (250 μl) of the resulting solution was added to 500 μl of TRITON X-100 surfactant. This mixture was then added dropwise with stirring to 25 ml of 0.05 molar HEPES buffer. A dispersion of RIND XXIX was prepared similarly except that DMF was acidified with 0.1% sulfuric acid. Compositions containing water-compatible RIND compounds were prepared as described above except the surfactant was omitted.
(§7) Each test solution contained the following: dispersion of RIND XXIX (25 μl) prepared as described above, glucose (400 μl of 10% aqueous solution), tryptose (400 μl of 10% aqueous solution), trimethyl-1,4-benzoquinone ETA (500 μl of 1.5 mg/ml methanol). Aliquots (200 μl) of the mixture were mixed with solutions of the antibiotics (50 μl). The cell suspensions (50 μl) were then added. The final concentration of gramcidin S and tyrocidin were 0.1 mg/ml and 3.3 mg/ml, respectively. The final cell concentration was about 5×10^7 cells/ml. Cell control solutions contained all reagents except antibiotics. Background controls consisted of both buffer and solution controls. […]
(§8) The solutions were incubated at 37° C. for 30 minutes, and the change in fluorescence emission (Δ fluorescence) was determined as the difference between the readings taken when the solutions were first mixed and then after 30 minutes incubation. Measurements were made in a commercially available MICROFLUOR Reader (available from Dynatech Laboratories, Alexandria, Virginia, U.S.A.), modified with an excitation filter at 540 nm, an emission filter at 620 nm and a Xenon lamp. […]

Experiment [6] has as its system P. vulgaris. As to the kind of experiment: DCIP reduction solution assay, ΔOD 620 nm. Type of experiment: cell-based, Proteus vulgaris. As to conditions: P. vulgaris (-) 5×10^7, gramicidin S 0.00625 mg/ml, 37° C. The procedure: as §3, §4, §5
The test system of experiment [7] is E. cloacae. As to the kind of experiment: RIND XXIX reduction solution assay, Δ fluorescence. As to conditions: E. cloacae (gram -) about 5×10^7 cells/ml, gramicidin S 0.1 mg/ml, 37° C. The experiment is classed as cell-based, Enterobacter cloacae. The procedure: as §1, §6, §7, §8
Experiment [8] relates to P. aeruginosa. As to the kind of experiment: MTT reduction solution assay, ΔOD 540 nm. The experiment is classed as cell-based, Pseudomonas aeruginosa. As to conditions: P. aeruginosa (-) 5×10^7, gramicidin S 0.00625 mg/ml, 37° C. The protocol: as §3, §4, §5
Experiment [9] deals with K. pneumoniae. As to the kind of experiment: MTT reduction solution assay, ΔOD 540 nm. As to conditions: K. pneumoniae (-) 5×10^7, gramicidin S 0.00625 mg/ml, 37° C. Type of experiment: cell-based, Klebsiella pneumoniae. The procedure: as §3, §4, §5

A value given as a limit tells only on which side of the number the result lay.

gramicidin S: the “Corrected ΔOD (15 Minutes)” value in experiment [1] worked out at 0.125; in experiment [2], 0.107. Further, the results for the “ΔOD, 620 nm after 30 Minutes” value in experiment [3] and in [6] were 0.066 and 1.029, respectively. Moreover, the “ΔOD, 540 nm after 30 Minutes” value in [4] is on record as 0.931; in experiment [8], 0.955; in experiment [9], 1.207. Also, the “Δ Fluorescence (30 Minutes)” value in experiment [5] and in [7] was greater than 4000 in each case.

The values above are taken from patent publication US4912036A, “Rapid differentiation of bacteria using cyclic polypeptide antibiotics” (Eastman Kodak Company, priority 1986, dated 1990).
